From patent US12428406B2 (PMV Pharmaceuticals, Inc., priority 2019, dated 2025)

target: T1, p53 Y220C (Homo sapiens, UniProt P04637, Y220C); test: In vitro DNA binding activity assay (HTRF / TR-FRET): stabilization of p53 Y220C and increase of its DNA binding activity; assay type: biochemical; conditions: recombinant His-tagged p53 Y220C DNA binding domain (aa 94-312), biotin-labeled consensus DNA, incubated at 27° C. or 29° C. for 60 min
T1 construct: The recombinant protein was a truncation mutant containing only amino acids 94-312 of p53; made in house; host or cells: E. coli
T1 sequence (P04637 94-312, change not shown): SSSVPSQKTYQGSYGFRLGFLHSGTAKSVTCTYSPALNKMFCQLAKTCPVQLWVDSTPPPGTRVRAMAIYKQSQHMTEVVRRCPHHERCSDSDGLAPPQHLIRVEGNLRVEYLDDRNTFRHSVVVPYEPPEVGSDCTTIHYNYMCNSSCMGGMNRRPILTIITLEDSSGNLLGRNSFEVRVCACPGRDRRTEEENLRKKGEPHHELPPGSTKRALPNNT
Summary of the method: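 Compound effect on DNA binding of recombinant His-p53 Y220C (E. coli) to biotin-labeled consensus DNA, expressed as SC150, the concentration giving 50% increase versus untreated. Serial 3-fold DMSO dilutions of 4.5 mM stocks; room-temperature steps of 15 then 20 min.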

SC150 (concentration of the compound required to increase the DNA binding activity by 50%)	SMILES
+ (+ = 0 μM ≤ SC150 < 0.05 μM)	CNC(=O)c1ccc(NCC#Cc2cc3c(N[C@H]4CC[C@@H](N5CC6(CCOCC6)C5)CC4)cccc3n2CC(F)(F)F)c(OC)c1 [Compound 296A, 3-methoxy-N-methyl-4-{[3-(4-{[(1S,4S)-4-{7-oxa-2-azaspiro[3.5]nonan-2-yl}cyclohexyl]amino}-1-(2,2,2-trifluoroethyl)-1H-indol-2-yl)prop-2-yn-1-yl]amino} benzamide]
+ (+ = 0 μM ≤ SC150 < 0.05 μM)	COc1cncc(-c2ccc(NCC#Cc3cc4c(NC5CCN(C)CC5)cccc4n3CC(F)(F)F)c(OC)c2)c1 [Compound 494A, 2-(3-{[2-methoxy-4-(5-methoxypyridin-3-yl)phenyl]amino}prop-1-yn-1-yl)-N-(1-methylpiperidin-4-yl)-1-(2,2,2-trifluoroethyl)-1H-indol-4-amine]
+ (+ = 0 μM ≤ SC150 < 0.05 μM)	COc1cc(S(=O)(=O)N2CCOCC2)ccc1NCC#Cc1cc2c(NC3CCN(C)CC3)cccc2n1CC(F)(F)F [Compound 480A, 2-(3-{[2-methoxy-4-(morpholine-4-sulfonyl)phenyl]amino}prop-1-yn-1-yl)-N-(1-methylpiperidin-4-yl)-1-(2,2,2-trifluoroethyl)-1H-indol-4-amine]
+ (+ = 0 μM ≤ SC150 < 0.05 μM)	COc1cc(C(=O)NCC2COC(=O)O2)ccc1NCC#Cc1cc2c(N[C@@H]3CCN(C)C[C@@H]3F)cccc2n1CC(F)(F)F (stereo partly drawn) [Compound 968A, 4-{1[3-(4-{1[(3S,4R)-3-fluoro-1-methylpiperidin-4-yl]amino}-1-(2,2,2-trifluoroethyl)-1H-indol-2-yl)prop-2-yn-1-yl]amino}-3-methoxy-N-[(2-oxo-1,3-dioxolan-4-yl)methyl]benzamide]
+ (+ = 0 μM ≤ SC150 < 0.05 μM)	COc1cc(C(C)(C)C#N)ncc1NCC#Cc1cc2c(NC3CCN(C)CC3)cccc2n1CC(F)(F)F [Compound 468A, 2-{4-methoxy-5-[(3-{4-[(1-methylpiperidin-4-yl)amino]-1-(2,2,2-trifluoroethyl)-1H-indol-2-yl}prop-2-yn-1-yl)amino]pyridin-2-yl}-2-methylpropanenitrile]
++ (++ = 0.05 μM ≤ SC150 < 0.1 μM)	COc1cc(S(C)(=O)=O)ccc1NCC#Cc1cc2c(N[C@H]3CCN(C)C[C@H]3OC)cccc2n1CC(F)(F)F [Compound 531A, 2-{3-[(4-methanesulfonyl-2-methoxyphenyl)amino]prop-1-yn-1-yl}-N-[(3R,4S)-3-methoxy-1-methylpiperidin-4-yl]-1-(2,2,2-trifluoroethyl)-1H-indol-4-amine]
+ (+ = 0 μM ≤ SC150 < 0.05 μM)	CC(O)CN1CCC(Nc2cccc3c2cc(C#CCNc2ccc(S(C)(=O)=O)cc2OCC#N)n3CC(F)(F)F)CC1 (centres unmarked) [Compound 661A, 2-(2-{[3-(4-{[1-(2-hydroxypropyl)piperidin-4-yl]amino}-1-(2,2,2-trifluoroethyl)-1H-indol-2-yl)prop-2-yn-1-yl]amino}-5-methanesulfonylphenoxy)acetonitrile]
+ (+ = 0 μM ≤ SC150 < 0.05 μM)	COc1cc(C(=O)O)ccc1NCC#Cc1cc2c(N[C@@H]3CCN(CCO)C[C@@H]3F)cccc2n1CC(F)(F)F [Compound 908A, 4-{[3-(4-{[(3S,4R)-3-fluoro-1-(2-hydroxyethyl)piperidin-4-yl]amino}-1-(2,2,2-trifluoroethyl)-1H-indol-2-yl)prop-2-yn-1-yl]amino}-3-methoxybenzoic acid]
+ (+ = 0 μM ≤ SC150 < 0.05 μM)	COc1cc(S(C)(=O)=O)ccc1NCC#Cc1cc2c(NC3CCN(C4COC4)CC3)cccc2n1CC(F)(F)F [Compound 678A, 2-{3-[(4-methanesulfonyl-2-methoxyphenyl)amino]prop-1-yn-1-yl}-N-[1-(oxetan-3-yl)piperidin-4-yl]-1-(2,2,2-trifluoroethyl)-1H-indol-4-amine]
+ (+ = 0 μM ≤ SC150 < 0.05 μM)	COc1cc(Cl)ccc1NCC#Cc1cc2c(N[C@H]3CC[C@H](N4CC5(COC5)C4)CC3)cccc2n1CC(F)(F)F [Compound 265A, N-((1R,4R)-4-(2-oxa-6-azaspiro[3.3]heptan-6-yl)cyclohexyl)-2-(3-((4-chloro-2-methoxyphenyl)amino)prop-1-yn-1-yl)-1-(2,2,2-trifluoroethyl)-1H-indol-4-amine]
+ (+ = 0 μM ≤ SC150 < 0.05 μM)	COCC(O)CN1CCC(Nc2cccc3c2cc(C#CCNc2ccc(S(C)(=O)=O)cc2OCC(F)(F)F)n3CC(F)(F)F)CC1 (centres unmarked) [Compound 645A, 1-(4-{[2-(3-{[4-methanesulfonyl-2-(2,2,2-trifluoroethoxy)phenyl]amino}prop-1-yn-1-yl)-1-(2,2,2-trifluoroethyl)-1H-indol-4-yl]amino}piperidin-1-yl)-3-methoxypropan-2-ol]
+ (+ = 0 μM ≤ SC150 < 0.05 μM)	CNC(=O)c1cc(OC)c(NCC#Cc2cc3c(NC4CCN(C)CC4)cccc3n2CC(F)(F)F)cc1F [Compound 516A, 2-fluoro-5-methoxy-N-methyl-4-[(3-{4-[(1-methylpiperidin-4-yl)amino]-1-(2,2,2-trifluoroethyl)-1H-indol-2-yl}prop-2-yn-1-yl)amino]benzamide]
+ (+ = 0 μM ≤ SC150 < 0.05 μM)	CNC(=O)c1ccc(NCC#Cc2cc3c(N[C@H]4CC[C@H](N5CCC6(CCOCC6)CC5)CC4)cccc3n2CC(F)(F)F)c(OC)c1 [Compound 416A, 3-methoxy-N-methyl-4-{[3-(4-{[(1R,4R)-4-{3-oxa-9-azaspiro[5.5]undecan-9-yl}cyclohexyl]amino}-1-(2,2,2-trifluoroethyl)-1H-indol-2-yl)prop-2-yn-1-yl]amino}benzamide]
+ (+ = 0 μM ≤ SC150 < 0.05 μM)	CCN1CCC(Nc2cccc3c2cc(C#CCNc2ccc(S(C)(=O)=O)cc2OCC#N)n3CC(F)(F)F)CC1 [Compound 536A]
+ (+ = 0 μM ≤ SC150 < 0.05 μM)	CN1CCC(Nc2cccc3c2cc(C#CCNc2ccc(S(C)(=O)=O)s2)n3CC(F)(F)F)CC1 [Compound 523A]
+ (+ = 0 μM ≤ SC150 < 0.05 μM)	COc1cc(C(N)=O)ccc1NCC#Cc1cc2c(N[C@H]3CCO[C@@H](C)C3)cccc2n1CC(F)(F)F [Compound 1021A, 3-methoxy-4-{[3-(4-{[(2S,4S)-2-methyloxan-4-yl]amino}-1-(2,2,2-trifluoroethyl)-1H-indol-2-yl)prop-2-yn-1-yl]amino}benzamide]
+ (+ = 0 μM ≤ SC150 < 0.05 μM)	COc1cc(S(C)(=O)=O)ccc1NCC#Cc1cc2c(NC3CCN(C[C@H](CO)OC)CC3)cccc2n1CC(F)(F)F [Compound 629A, (2R)-3-{4-[(2-{3-[(4-methanesulfonyl-2-methoxyphenyl)amino]prop-1-yn-1-yl}-1-(2,2,2-trifluoroethyl)-1H-indol-4-yl)amino]piperidin-1-yl}-2-methoxypropan-1-ol]
+ (+ = 0 μM ≤ SC150 < 0.05 μM)	COCC(O)CNC(=O)c1ccc(NCC#Cc2cc3c(N[C@@H]4CCN(C)C[C@@H]4F)cccc3n2CC(F)(F)F)c(OC)c1 (some centres unmarked) [Compound 960A]
+ (+ = 0 μM ≤ SC150 < 0.05 μM)	COCCN(CCOC)[C@H]1CC[C@H](Nc2cccc3c2cc(C#CCNc2ccc(S(N)(=O)=O)cc2OCF)n3CC(F)(F)F)CC1 [Compound 166A, 3-(fluoromethoxy)-4-{[3-(4-{[(1R,4R)-4-[bis(2-methoxyethyl)amino]cyclohexyl]amino}-1-(2,2,2-trifluoro-ethyl)-1H-indol-2-yl)prop-2-yn-1-yl]amino} benzene-1-sulfonamide]
+ (+ = 0 μM ≤ SC150 < 0.05 μM)	COc1cc(C(C)(C)C#N)ccc1NCC#Cc1cc2c(N[C@H]3CC[C@H](N4CC5(CCOCC5)C4)CC3)cccc2n1CC(F)(F)F [Compound 301A, 2-(3-methoxy-4-{[3-(4-{[(1R,4R)-4-{7-oxa-2-azaspiro[3.5]nonan-2-yl}cyclohexyl]amino}-1-(2,2,2-trifluoroethyl)-1H-indol-2-yl)prop-2-yn-1-yl]amino}phenyl)-2-methylpropanenitrile]
++ (++ = 0.05 μM ≤ SC150 < 0.1 μM)	COc1cc(S(N)(=O)=O)ccc1NCC#Cc1cc2c(N[C@H]3C[C@@H](C)O[C@@H](C)C3)cccc2n1CC(F)(F)F [Compound 1032A, 3-methoxy-4-{[3-(4-{[(2R,4R,6S)-2,6-dimethyloxan-4-yl]amino}-1-(2,2,2-trifluoroethyl)-1H-indol-2-yl)prop-2-yn-1-yl]amino}benzene-1-sulfonamide]
+ (+ = 0 μM ≤ SC150 < 0.05 μM)	COCCNC(=O)c1ccc(NCC#Cc2cc3c(N[C@H]4CCN(C)C[C@H]4F)cccc3n2CC(F)(F)F)c(OC)c1 (racemic) [Compound 814A, rac-4-{[3-(4-{[(3R,4S)-3-fluoro-1-methylpiperidin-4-yl]amino}-1-(2,2,2-trifluoroethyl)-1H-indol-2-yl)prop-2-yn-1-yl]amino}-3-methoxy-N-(2-methoxyethyl)benzamide]

SMILES	SC150 (concentration of the compound required to increase the DNA binding activity by 50%)
COc1cc(S(N)(=O)=O)ccc1NCC#Cc1cc2c(N[C@H]3CC[C@H](N4CC5CC(C4)O5)CC3)cccc2n1CC(F)(F)F [Compound 400A, 3-methoxy-4-{[3-(4-{[(1R,4R)-4-{6-oxa-3-azabicyclo[3.1.1]heptan-3-yl}cyclohexyl]amino}-1-(2,2,2-trifluoroethyl)-1H-indol-2-yl)prop-2-yn-1-yl]amino}benzene-1-sulfonamide]	+ (+ = 0 μM ≤ SC150 < 0.05 μM)
